Measured values reported in the supplement of paper PMC10307832.

These cell lines were tested with CC(C)CCN1c2nc(Nc3cc(F)c(O)c(F)c3)ncc2N(C)C(=O)C1C [BI-D1870] + Nc1ncn([C@H]2C[C@H](O)[C@@H](CO)O2)c(=O)n1 [Decitabine] (partner 2 µM) (assay: relative viability (nuclei count vs DMSO), 5 days (fraction); higher = more cells survive). Details: first compound 0.04 µM.
Outline: (§1)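 For relative viability, nuclei counts in treated wells were divided by those in vehicle wells. Lung cancer cell lines had been pin-tool dosed in 1536-well plates the day after seeding and cultured for 5 days, then fixed and stained in one step (final 0.05% Triton X-100, 1% formaldehyde, 1 ug/ml Hoechst) and imaged at 4×. Doses were one drug alone or a fixed anchor-drug dose plus five library-drug doses (not always all listed) in √10 steps, and values are duplicate-plate medians.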

First: HCC-44
Second: LU99A
The relative viability of the first is higher: 0.987 for the first, 0.883 for the second.

First: BEN
Second: HARA
The relative viability of the first is higher: 0.748 for the first, 0.513 for the second.

Compared with HCC-78, NCI-H322M is lower in relative viability: 0.755 for the first, 0.721 for the second.

Compared with LCLC-97TM1, NCI-H2009 is higher in relative viability: 0.236 for the first, 0.379 for the second.

Compared with A-427, NCI-H441 is lower in relative viability: 0.573 for the first, 0.249 for the second.

Going from NCI-H661 to NCI-H1734, the relative viability falls from 0.524 to 0.482.

Compared with NCI-H460, NCI-H2347 is higher in relative viability: 0.548 for the first, 0.671 for the second.

Compared with SK-LU-1, 201T is higher in relative viability: 0.653 for the first, 0.886 for the second.

First: NCI-H1915
Second: HCC-827
The relative viability of the first is lower: 0.267 for the first, 0.333 for the second.

Going from LXF-289 to NCI-H23, the relative viability falls from 0.35 to 0.336.

Compared with NCI-H647, NCI-H1651 is higher in relative viability: 0.386 for the first, 0.615 for the second.

First: EPLC-272H
Second: NCI-H1792
The relative viability of the first is lower: 0.372 for the first, 0.558 for the second.

Going from NCI-H1355 to NCI-H3122, the relative viability rises from 0.363 to 0.51.

Going from NCI-H1437 to NCI-H1755, the relative viability rises from 0.59 to 0.716.

Going from NCI-H2023 to HCC-15, the relative viability rises from 0.204 to 0.674.

Same assay, conditions: first compound 0.1265 µM

Compared with NCI-H2405, HOP-62 is lower in relative viability: 0.693 for the first, 0.241 for the second.

Compared with HCC-44, LU99A is lower in relative viability: 0.973 for the first, 0.814 for the second.

Compared with BEN, HARA is lower in relative viability: 0.617 for the first, 0.527 for the second.

Compared with HCC-78, NCI-H322M is lower in relative viability: 0.774 for the first, 0.631 for the second.

First: LCLC-97TM1
Second: NCI-H2009
The relative viability of the first is lower: 0.231 for the first, 0.366 for the second.

First: A-427
Second: NCI-H441
The relative viability of the first is higher: 0.499 for the first, 0.273 for the second.

First: NCI-H661
Second: NCI-H1734
The relative viability of the first is higher: 0.555 for the first, 0.448 for the second.

Going from NCI-H460 to NCI-H2347, the relative viability rises from 0.459 to 0.656.

First: SK-LU-1
Second: 201T
The relative viability of the first is lower: 0.607 for the first, 0.849 for the second.

Going from NCI-H1915 to HCC-827, the relative viability rises from 0.247 to 0.322.

Compared with LXF-289, NCI-H23 is lower in relative viability: 0.382 for the first, 0.329 for the second.

Compared with NCI-H647, NCI-H1651 is higher in relative viability: 0.339 for the first, 0.592 for the second.

Compared with EPLC-272H, NCI-H1792 is higher in relative viability: 0.346 for the first, 0.525 for the second.

Going from NCI-H1355 to NCI-H3122, the relative viability rises from 0.31 to 0.333.

First: NCI-H1437
Second: NCI-H1755
The relative viability of the first is lower: 0.53 for the first, 0.685 for the second.

First: NCI-H2023
Second: HCC-15
The relative viability of the first is lower: 0.188 for the first, 0.623 for the second.

Same assay, conditions: first compound 0.4 µM

Going from NCI-H2405 to HOP-62, the relative viability falls from 0.733 to 0.208.

First: HCC-44
Second: LU99A
The relative viability of the first is higher: 0.96 for the first, 0.898 for the second.

Going from BEN to HARA, the relative viability falls from 0.733 to 0.568.

Compared with HCC-78, NCI-H322M is lower in relative viability: 0.791 for the first, 0.68 for the second.

Going from LCLC-97TM1 to NCI-H2009, the relative viability rises from 0.209 to 0.394.

Compared with A-427, NCI-H441 is lower in relative viability: 0.561 for the first, 0.275 for the second.

First: NCI-H661
Second: NCI-H1734
The relative viability of the first is higher: 0.542 for the first, 0.531 for the second.

First: NCI-H460
Second: NCI-H2347
The relative viability of the first is lower: 0.473 for the first, 0.619 for the second.

First: SK-LU-1
Second: 201T
The relative viability of the first is lower: 0.652 for the first, 0.847 for the second.

First: NCI-H1915
Second: HCC-827
The relative viability of the first is lower: 0.285 for the first, 0.306 for the second.

Going from LXF-289 to NCI-H23, the relative viability falls from 0.372 to 0.306.

Going from NCI-H647 to NCI-H1651, the relative viability rises from 0.481 to 0.537.

Going from EPLC-272H to NCI-H1792, the relative viability rises from 0.417 to 0.596.

First: NCI-H1355
Second: NCI-H3122
The relative viability of the first is lower: 0.356 for the first, 0.478 for the second.

First: NCI-H1437
Second: NCI-H1755
The relative viability of the first is higher: 0.756 for the first, 0.701 for the second.

Going from NCI-H2023 to HCC-15, the relative viability rises from 0.232 to 0.627.

Same assay, conditions: first compound 1.265 µM

Compared with NCI-H2405, HOP-62 is lower in relative viability: 0.777 for the first, 0.198 for the second.

Going from HCC-44 to LU99A, the relative viability falls from 1.03 to 0.837.

Compared with BEN, HARA is lower in relative viability: 0.738 for the first, 0.683 for the second.

Going from HCC-78 to NCI-H322M, the relative viability falls from 0.727 to 0.655.

Going from LCLC-97TM1 to NCI-H2009, the relative viability rises from 0.255 to 0.397.

Going from A-427 to NCI-H441, the relative viability falls from 0.685 to 0.255.

Compared with NCI-H661, NCI-H1734 is lower in relative viability: 0.651 for the first, 0.559 for the second.

Going from NCI-H460 to NCI-H2347, the relative viability rises from 0.593 to 0.657.

First: SK-LU-1
Second: 201T
The relative viability of the first is lower: 0.604 for the first, 0.848 for the second.

Going from NCI-H1915 to HCC-827, the relative viability rises from 0.234 to 0.365.

First: LXF-289
Second: NCI-H23
The relative viability of the first is higher: 0.411 for the first, 0.333 for the second.

Compared with NCI-H647, NCI-H1651 is higher in relative viability: 0.455 for the first, 0.64 for the second.

Compared with EPLC-272H, NCI-H1792 is higher in relative viability: 0.359 for the first, 0.851 for the second.

Going from NCI-H1355 to NCI-H3122, the relative viability rises from 0.412 to 0.427.

First: NCI-H1437
Second: NCI-H1755
The relative viability of the first is lower: 0.629 for the first, 0.715 for the second.

First: NCI-H2023
Second: HCC-15
The relative viability of the first is lower: 0.248 for the first, 0.72 for the second.

Same assay, conditions: first compound 4 µM

Going from NCI-H2405 to HOP-62, the relative viability falls from 0.726 to 0.314.

Compared with HCC-44, LU99A is lower in relative viability: 1.04 for the first, 0.725 for the second.

First: BEN
Second: HARA
The relative viability of the first is higher: 0.844 for the first, 0.684 for the second.

Going from HCC-78 to NCI-H322M, the relative viability falls from 0.746 to 0.729.

First: LCLC-97TM1
Second: NCI-H2009
The relative viability of the first is lower: 0.262 for the first, 0.3 for the second.

First: A-427
Second: NCI-H441
The relative viability of the first is higher: 0.638 for the first, 0.312 for the second.

Compared with NCI-H661, NCI-H1734 is lower in relative viability: 0.546 for the first, 0.525 for the second.

Going from NCI-H460 to NCI-H2347, the relative viability rises from 0.443 to 0.627.

First: SK-LU-1
Second: 201T
The relative viability of the first is lower: 0.536 for the first, 0.879 for the second.

First: NCI-H1915
Second: HCC-827
The relative viability of the first is lower: 0.271 for the first, 0.402 for the second.

Going from LXF-289 to NCI-H23, the relative viability falls from 0.416 to 0.242.

Going from NCI-H647 to NCI-H1651, the relative viability rises from 0.537 to 0.617.

Going from EPLC-272H to NCI-H1792, the relative viability rises from 0.372 to 0.666.

Going from NCI-H1355 to NCI-H3122, the relative viability rises from 0.394 to 0.508.

First: NCI-H1437
Second: NCI-H1755
The relative viability of the first is lower: 0.56 for the first, 0.692 for the second.

First: NCI-H2023
Second: HCC-15
The relative viability of the first is lower: 0.281 for the first, 0.465 for the second.

These cell lines were tested with CC(C)CCN1c2nc(Nc3cc(F)c(O)c(F)c3)ncc2N(C)C(=O)C1C [BI-D1870] + CC(C)C[C@H](NC(=O)[C@H](Cc1ccccc1)NC(=O)c1cnccn1)B(O)O [Bortezomib] (partner 0.002 µM) in the same assay as above. Details: first compound 0.04 µM.
Outline: as §1

Cell Line NCI-H2405 has a relative viability of 1.07.
